The source of these data is patent US20230346878A1, “Treatment of Abdominal Pain Associated with Diarrhea-Predominant Irritable Bowel Syndrome” (Ironwood Pharmaceuticals, Inc., priority 2019, published 2023).

Where a SMILES comes first, the peptide text is derived from it. Bridges are numbered along the chain shown (N, C = ends).

The data set in a line: Phase 1 study of linaclotide DR2: PK in plasma and inspection of stool for intact tablets. It is filed as in vivo, human. The procedure:
Delayed release “DR2” linaclotide tablets were administered in a double-blind, placebo-controlled Phase 1 study randomized healthy adult volunteers at dosing levels of 300 μg, 1200 μg, and 3000 μg or placebo for 7 days. Safety and tolerability were assessed at each dose and prior to escalation to the highest dose. Gastrointestinal pharmacodynamics (“PD”) assessments included change from baseline (CFB) in bowel movement frequency (Spontaneous bowel movement [SBM]/week) and stool consistency (Bristol stool form scale [BSFS]). To confirm release of linaclotide, all of the subject's stools were inspected for intact DR2 tablets.
PK assessments were conduct through blood determination of linaclotide and its metabolite in plasma, and feces for the determination of linaclotide and its metabolite in stool, were collected from all dosed subjects during the Clinic Period.

As for `C[C@@H]1NC(=O)[C@@H]2CCCN2C(=O)[C@H](CC(N)=O)NC(=O)[C@@H]2CSSC[C@H](N)C(=O)N[C@H]3CSSC[C@H](NC1=O)C(=O)N[C@@H]([C@@H](C)O)C(=O)NCC(=O)N[C@H](C(=O)N[C@@H](Cc1ccc(O)cc1)C(=O)O)CSSC[C@H](NC(=O)[C@H](Cc1ccc(O)cc1)NC(=O)[C@H](CCC(=O)O)NC3=O)C(=O)N2` [Linaclotide, linaclotide] (H-CCEYCCNPACTGCY-OH; disulfide 1-6, 2-10, 5-13 (inferred)), the “systemic absorption / exposure” value (DR2 tablets orally for 7 days) is given as “minimally absorbed with negligible systemic exposure”. Under “following 7 days of oral administration of DR2”, the detection in plasma entry is on record as “Neither linaclotide nor its active metabolite were detected”.
